Experiments:
transgenic (Tg) mice = assay: 6-month carcinogenicity study in Tg mice; format: in vivo; details: 6-month Tg mouse study
From the text: (§1) Immunotoxicity and phototoxicity studies have also been conducted. Carcinogenicity studies in Tg mice (6 month) and rats (2 year) have been completed. […] Brepocitinib-related findings consistent with the mechanism of action (lower thymus weight and cellularity, infection) or not relevant to humans (exacerbation of chronic progressive nephropathy in the kidney) were also observed. Fertility studies in rats have been completed.

[1] = test system: rat adjuvant-induced arthritis; assay: Rat adjuvant-induced arthritis disease model; details: in vivo
From the text: (§2) Pharmacology. Brepocitinib inhibits various TYK2- and JAK1-dependent functions in different cell types such as cytokine-induced phosphorylation of signal transducer and activator transcriptions (STATs) in human peripheral blood mononuclear cells (PBMCs) and whole blood; differentiation of T helper (Th) 1, Th17, and B cells, interleukin (IL)-12-induced IFNγ production in human PBMCs; and IFN-1 gene signature induced by immune complexes in human PBMCs.

IP-10 (CXCL10) = assay: IP-10 reduction in clinical studies; format: in vivo, human; details: dose dependent reductions in clinical studies
From the text: (§3) As part of the clinical development program for oral Brepocitinib, a number of Phase 1 and Phase 2 studies have been completed or have a report in preparation. […] The multiple autoimmune diseases for which there is observed clinical efficacy data for Brepocitinib have mechanistic pathway similarities to DM. For example, psoriasis is driven by IL-17, which is downstream of IL-12 and IL-23 signaling via TYK2 and/or JAK1, and alopecia areata is characterized by excessive activity of IFN-γ, a type II interferon which also signals via JAK1. Of note, dose dependent reductions in IP-10 (CXCL10), an IFN-γ inducible gene, have been observed in Brepocitinib clinical studies, separating from placebo at doses ≥10 mg QD. Importantly, in these phase 2 studies, clinical response with Brepocitinib treatment rapidly separates from placebo. For example, in the phase 2 study assessing Brepocitinib's efficacy in psoriatic arthritis, Brepocitinib 30 mg achieved a 52% ACR20 response rate after 4 weeks compared to a 19% response rate in placebo patients.

male rat = assay: Fertility study in rats; format: in vivo; details: 55 mg/kg/day
From the text: as §1

[2] = In vitro profiling for metabolic drug-drug interactions; details: direct inhibition and induction mechanisms
Broad off-target panel = details: functional assays, ligand binding, enzyme activity
CYP3A4/5 = details: human
[3] = test system: cytokine signaling pathways that engage TYK2 and/or JAK1, including IFNα, IFNg, IL-12, and IL-23; assay: Cytokine signaling in human whole blood; format: cell-based; details: IL-12, IL-23
psoriatic arthritis = assay: Phase 2 study in psoriatic arthritis (ACR20); format: in vivo, human; details: 30 mg; after 4 weeks; psoriatic arthritis patients
From the text: as §3

human PBMCs [4] = assay: IL-12-induced IFNγ production; format: cell-based
From the text: as §2

[5] = human
[6] = Tolerability in clinical studies to date; format: in vivo, human
From the text: Brepocitinib is being evaluated in a double-blind, randomized, placebo-controlled Phase 3 study in DM (NCT0543726; VALOR Study). With a planned enrollment of 225 subjects, the VALOR Study is the largest well-controlled trial in DM to date. Adult patients with definite or probable idiopathic inflammatory myopathy (IIM), who meet the subclassification criteria for DM, have both muscle and skin disease involvement (classic DM), and are receiving (or are not responsive to or are intolerant to) corticosteroids and/or immunomodulatory/immunosuppressive therapies are eligible to enroll. The primary endpoint is the total improvement score (TIS) at week 52. The TIS is a composite endpoint based on the following six CSM scores: the Physician Global Disease Activity, the Patient Global Disease Activity, the Health Assessment Questionnaire, MMT-8, Extramuscular Disease Activity, and muscle enzymes. To evaluate the steroid-sparing effect of Brepocitinib, participants using glucocorticoids at baseline must taper to an oral glucocorticoid dose of prednisone≤5 mg/day (or equivalent) by week 36.

cynomolgus monkeys = assay: Chronic oral toxicology study in monkeys; details: end of study exposure
[7] = test system: Human dermal microvascular endothelial cells (HMEC-1); assay: IFN-I induced endothelial cell damage (vascular network); format: cell-based; details: Brepocitinib preincubation
Method: Timeline for Brepocitinib efficacy evaluation for IFN-I induced pathological changes characteristic of DM in vitro. As shown in the schematic image of FIG. 1, human skeletal muscle myoblasts (HSMM) were cultured and differentiated into myotubes then treated with vehicle control or IFN-I (recombinant Human IFN alpha A and Human IFN alpha D) to induce cellular damage. Myotubes were also preincubated for 1 hour with Brepocitinib (1 μM or 130 nM, the latter is equivalent to the average free plasma concentration after administration of 30 mg once-daily) prior to IFN-I treatment. Immunofluorescence staining followed by image analysis to determine myosin 4 surface area were conducted after 48 hours of IFN-I treatment. […] Under light microscopy, 9 hours after treatment, the number of nodes, master segment length, and total mesh area were analyzed.
Human skeletal muscle myoblasts (Lonza, CC-2580) were cultured in SkGM™-2 media (Lonza, CC-3245) and sub-cultured using ReagentPack™ Subculture Reagents (Lonza, CC-5034). […] The effect on total myotube surface area was evaluated via fluorescent image analysis. […] The effect of type I IFN exposure±Brepocitinib treatment on the number of nodes, master segment length, and total mesh area was evaluated by taking bright-field images every 16 hours.

rats = assay: Chronic oral toxicology study in rats; details: end of study exposure
clinical = details: human, in vivo
P-gp = P-gp (Homo sapiens, UniProt P08183); assay: In vitro transporter inhibition, P-gp
P-gp, sequence (P08183 whole entry): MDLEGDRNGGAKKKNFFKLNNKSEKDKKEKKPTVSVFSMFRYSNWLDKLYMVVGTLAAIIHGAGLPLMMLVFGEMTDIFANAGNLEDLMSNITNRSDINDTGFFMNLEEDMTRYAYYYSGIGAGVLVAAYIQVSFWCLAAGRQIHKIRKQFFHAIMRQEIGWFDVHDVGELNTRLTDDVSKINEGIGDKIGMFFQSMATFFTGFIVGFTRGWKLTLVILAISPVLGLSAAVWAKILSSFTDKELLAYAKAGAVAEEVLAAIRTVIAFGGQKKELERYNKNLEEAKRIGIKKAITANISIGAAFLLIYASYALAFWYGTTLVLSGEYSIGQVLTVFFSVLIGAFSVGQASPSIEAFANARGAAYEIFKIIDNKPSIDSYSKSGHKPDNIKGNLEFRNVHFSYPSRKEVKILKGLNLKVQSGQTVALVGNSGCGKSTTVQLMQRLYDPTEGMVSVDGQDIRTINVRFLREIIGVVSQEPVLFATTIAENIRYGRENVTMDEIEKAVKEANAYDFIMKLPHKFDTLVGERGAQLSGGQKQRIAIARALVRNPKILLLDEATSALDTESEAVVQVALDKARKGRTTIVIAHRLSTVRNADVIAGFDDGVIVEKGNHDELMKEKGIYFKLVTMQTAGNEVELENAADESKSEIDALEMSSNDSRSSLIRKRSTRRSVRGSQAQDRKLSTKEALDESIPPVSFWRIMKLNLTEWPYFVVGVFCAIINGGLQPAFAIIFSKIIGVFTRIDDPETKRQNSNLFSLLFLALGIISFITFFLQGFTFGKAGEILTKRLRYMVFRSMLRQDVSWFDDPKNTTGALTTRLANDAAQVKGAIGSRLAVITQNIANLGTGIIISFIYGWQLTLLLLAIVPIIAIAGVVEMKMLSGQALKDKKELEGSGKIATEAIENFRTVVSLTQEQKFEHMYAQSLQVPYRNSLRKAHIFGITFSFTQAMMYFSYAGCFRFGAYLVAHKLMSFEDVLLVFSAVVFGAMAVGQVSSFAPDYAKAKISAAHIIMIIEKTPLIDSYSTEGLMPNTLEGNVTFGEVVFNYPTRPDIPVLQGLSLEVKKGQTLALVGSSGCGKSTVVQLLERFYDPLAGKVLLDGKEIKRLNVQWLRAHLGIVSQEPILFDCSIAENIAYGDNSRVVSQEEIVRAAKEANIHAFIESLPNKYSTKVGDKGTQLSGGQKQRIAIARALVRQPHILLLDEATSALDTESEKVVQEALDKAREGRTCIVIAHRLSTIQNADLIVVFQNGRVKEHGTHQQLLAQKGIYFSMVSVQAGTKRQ

[8] = Dose-response across Phase 2 studies; format: in vivo, human; details: normalized responder rate vs average daily dose across Phase 2 studies
[9] = Cardiovascular safety pharmacology studies; details: oral administration
CYP1A2 = CYP1A2 (Homo sapiens, UniProt P05177)
CYP1A2, sequence (P05177 whole entry): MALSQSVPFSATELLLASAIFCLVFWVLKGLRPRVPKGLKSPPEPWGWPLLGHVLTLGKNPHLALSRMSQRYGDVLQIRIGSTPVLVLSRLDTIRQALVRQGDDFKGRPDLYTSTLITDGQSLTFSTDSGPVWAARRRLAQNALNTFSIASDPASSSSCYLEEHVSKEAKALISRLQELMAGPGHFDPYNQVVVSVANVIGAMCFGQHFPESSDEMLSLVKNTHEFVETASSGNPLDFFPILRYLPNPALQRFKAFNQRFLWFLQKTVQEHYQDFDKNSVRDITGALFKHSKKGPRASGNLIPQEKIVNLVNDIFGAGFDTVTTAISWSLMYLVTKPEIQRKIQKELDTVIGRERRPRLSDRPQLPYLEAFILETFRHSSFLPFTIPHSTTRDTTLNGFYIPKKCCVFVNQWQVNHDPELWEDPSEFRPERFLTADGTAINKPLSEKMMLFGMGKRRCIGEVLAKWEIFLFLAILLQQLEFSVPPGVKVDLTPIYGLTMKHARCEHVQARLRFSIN

[10] = biological target: breast cancer resistance protein (BCRP) (Homo sapiens, UniProt Q9UNQ0); assay: In vitro transporter inhibition, BCRP
[11] = biological target: multidrug and toxin extrusion (MATE) 1 (Homo sapiens, UniProt Q96FL8); assay: In vitro transporter inhibition, MATE1
multidrug and toxin extrusion (MATE) 1, sequence (Q96FL8 whole entry): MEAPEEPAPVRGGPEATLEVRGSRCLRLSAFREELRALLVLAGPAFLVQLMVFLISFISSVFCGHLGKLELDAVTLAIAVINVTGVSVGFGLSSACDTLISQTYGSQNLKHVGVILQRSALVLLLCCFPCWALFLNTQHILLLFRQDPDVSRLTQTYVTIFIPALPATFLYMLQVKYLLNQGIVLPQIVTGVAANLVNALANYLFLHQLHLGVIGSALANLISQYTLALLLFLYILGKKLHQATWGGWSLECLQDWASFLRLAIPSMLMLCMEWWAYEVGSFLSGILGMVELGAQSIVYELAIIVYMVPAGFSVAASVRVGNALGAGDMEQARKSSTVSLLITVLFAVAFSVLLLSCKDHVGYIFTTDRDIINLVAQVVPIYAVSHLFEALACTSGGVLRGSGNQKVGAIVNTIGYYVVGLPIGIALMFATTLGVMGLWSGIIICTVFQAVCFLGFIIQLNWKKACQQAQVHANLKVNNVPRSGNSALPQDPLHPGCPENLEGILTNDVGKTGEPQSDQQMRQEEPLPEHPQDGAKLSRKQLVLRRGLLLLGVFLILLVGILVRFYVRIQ

OCT2 = OCT2 (Homo sapiens, UniProt O15244); assay: In vitro transporter inhibition, OCT2
OCT2, sequence (O15244 whole entry): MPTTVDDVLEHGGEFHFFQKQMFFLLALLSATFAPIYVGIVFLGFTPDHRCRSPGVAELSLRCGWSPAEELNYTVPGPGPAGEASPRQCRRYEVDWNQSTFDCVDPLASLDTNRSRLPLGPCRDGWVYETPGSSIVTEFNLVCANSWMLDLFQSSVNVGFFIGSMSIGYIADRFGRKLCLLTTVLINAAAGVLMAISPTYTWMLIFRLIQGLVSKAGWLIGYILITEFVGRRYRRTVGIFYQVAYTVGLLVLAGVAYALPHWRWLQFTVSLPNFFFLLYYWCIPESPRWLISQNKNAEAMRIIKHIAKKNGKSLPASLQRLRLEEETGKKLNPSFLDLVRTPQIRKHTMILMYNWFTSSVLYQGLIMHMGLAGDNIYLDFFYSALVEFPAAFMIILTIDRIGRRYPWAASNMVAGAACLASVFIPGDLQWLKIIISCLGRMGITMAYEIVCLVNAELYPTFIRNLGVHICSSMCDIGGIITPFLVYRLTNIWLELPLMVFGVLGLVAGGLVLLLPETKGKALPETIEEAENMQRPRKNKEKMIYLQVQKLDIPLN

[12] = test system: T helper (Th) 1, Th17, and B cells; assay: Differentiation of Th1, Th17 and B cells; format: cell-based
From the text: as §2

[13] = Dissolution from immediate-release tablets; format: physicochemical; details: in 30 minutes; 30 mg tablet, pH 6.8 phosphate buffer, USP Apparatus II, 75 rpm
Method: Dissolution: […] An illustrative dissolution profile for a prototype 30 mg tablet in pH 6.8 phosphate buffer using USP Apparatus II, 75 rpm is shown in FIG. 6. […] The final to-be-marketed product will be tested in all three-pH media for confirmation of rapid dissolution. The to-be-marketed product will be developed at a commercial manufacturing site that is to be decided and will be different from that used to manufacture the current clinical trial material.

[14] = test system: psoriatic arthritis, plaque psoriasis, ulcerative colitis, alopecia areata, and hidradenitis suppurativa; assay: 5 completed Phase 2 placebo-controlled studies; format: in vivo, human; details: each of 5 placebo-controlled Phase 2 studies
From the text: Primary efficacy endpoints with Brepocitinib. […] These clinical data, along with the overlapping pathogenic cytokine profile, support the rationale for evaluating Brepocitinib in DM.

[15] = biological target: organic cation transporter (OCT) 1 (Homo sapiens, UniProt O15245); assay: In vitro transporter inhibition, OCT1
organic cation transporter (OCT) 1, sequence (O15245 whole entry): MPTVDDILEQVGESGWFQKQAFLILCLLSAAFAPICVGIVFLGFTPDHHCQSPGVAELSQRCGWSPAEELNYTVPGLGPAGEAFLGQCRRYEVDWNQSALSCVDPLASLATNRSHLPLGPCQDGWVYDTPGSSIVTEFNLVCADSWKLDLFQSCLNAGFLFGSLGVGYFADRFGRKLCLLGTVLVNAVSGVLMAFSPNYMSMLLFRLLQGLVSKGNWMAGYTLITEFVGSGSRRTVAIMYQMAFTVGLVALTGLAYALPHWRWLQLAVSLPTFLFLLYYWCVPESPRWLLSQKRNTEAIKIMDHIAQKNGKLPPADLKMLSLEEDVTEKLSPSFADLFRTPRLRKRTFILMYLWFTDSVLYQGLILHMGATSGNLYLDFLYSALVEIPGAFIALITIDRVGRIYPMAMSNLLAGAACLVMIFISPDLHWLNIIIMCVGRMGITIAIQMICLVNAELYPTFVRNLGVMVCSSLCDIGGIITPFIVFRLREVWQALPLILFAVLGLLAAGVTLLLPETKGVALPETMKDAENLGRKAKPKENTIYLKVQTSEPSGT

[16] = test system: cytokine-induced phosphorylation of STATs in human PBMCs and whole blood; assay: Cytokine-induced STAT phosphorylation; format: cell-based
From the text: as §2

[17] = test system: Human skeletal muscle myoblasts (HSMM) differentiated into myotubes; assay: IFN-I induced myotube damage (myosin 4 surface area); format: cell-based; details: for mean myosin surface area: 48 hours IFN-I
Method: Timeline for Brepocitinib efficacy evaluation for IFN-I induced pathological changes characteristic of DM in vitro. As shown in the schematic image of FIG. 1, human skeletal muscle myoblasts (HSMM) were cultured and differentiated into myotubes then treated with vehicle control or IFN-I (recombinant Human IFN alpha A and Human IFN alpha D) to induce cellular damage. Myotubes were also preincubated for 1 hour with Brepocitinib (1 μM or 130 nM, the latter is equivalent to the average free plasma concentration after administration of 30 mg once-daily) prior to IFN-I treatment. Immunofluorescence staining followed by image analysis to determine myosin 4 surface area were conducted after 48 hours of IFN-I treatment. Human dermal microvascular endothelial cells (HMEC-1) were cultured and, once vascular networks were established, cells were treated with IFN-I or vehicle control. Cells were also preincubated for 1 hour with Brepocitinib. Under light microscopy, 9 hours after treatment, the number of nodes, master segment length, and total mesh area were analyzed.
Human skeletal muscle myoblasts (Lonza, CC-2580) were cultured in SkGM™-2 media (Lonza, CC-3245) and sub-cultured using ReagentPack™ Subculture Reagents (Lonza, CC-5034). They were then differentiated into myotubes by culturing in differentiation medium [DMEM/F12+2% Horse serum (Thermofisher, 16050122)] for 3-5 days until most of the myoblast cells differentiated into multinucleated myotubes. The myotubes were then preincubated with vehicle or Brepocitinib prior to type I interferon (R&D, 11200-2) exposure at concentrations (FIG. 7). After 48 hours of treatment, cells were fixed and stained with Myosin 4 Monoclonal antibody (MF20; Thermofisher, 14-6503-82) and Hoechst for nuclei visualization. The effect on total myotube surface area was evaluated via fluorescent image analysis. […] The effect of type I IFN exposure±Brepocitinib treatment on the number of nodes, master segment length, and total mesh area was evaluated by taking bright-field images every 16 hours.

[18] = Solubility across physiological pH range; format: physicochemical
[19] = biological target: P-glycoprotein (P-gp; MDR1; ABCB1) (Homo sapiens, UniProt P08183); assay: P-glycoprotein substrate status
P-glycoprotein (P-gp; MDR1; ABCB1), sequence (P08183 whole entry): as the sequence (P08183 whole entry) above

human PBMCs [20] = assay: IFN-1 gene signature induced by immune complexes; format: cell-based
From the text: as §2

[21] = human, plasma, 2 μM

With `Cn1cc(Nc2nccc(N3C[C@H]4CC[C@@H](C3)N4C(=O)[C@@H]3CC3(F)F)n2)cn1` [Brepocitinib, [(1S)-2,2-difluorocyclo-propyl][(1R,5S)-3-{2-[(1-methyl-1H-pyrazol-4-yl)amino]pyrimidin-4-yl}-3,8-diazabicyclo[3.2.1]oct-8-yl]methanone] the neoplastic findings (transgenic (Tg) mice) was “No Brepocitinib-related neoplastic findings”, the “effect in rat adjuvant-induced arthritis” value [1] was “anti-inflammatory effects” and the “doses at which IP-10 (CXCL10) reduction separates from placebo” value (IP-10 (CXCL10)) was at least 10 mg QD. For the same molecule, the “effects on male rat fertility” value (male rat; highest dose tested) was “No adverse effects”, the “margin to clinical exposures at highest dose tested” value (male rat; male rat fertility) was over 50 fold and the “potential to be a perpetrator of metabolic drug-drug interactions” value [2] was “low potential”. The off-target pharmacology potential (Broad off-target panel) was “low potential for off-target pharmacology”, the “in vitro fraction metabolized” value (CYP3A4/5) was 0.77 and the “Inhibition of cytokine signaling pathways implicated in DM” value [3] was “inhibited”. The ACR20 response rate (psoriatic arthritis) was 52%, the “IL-12-induced IFNγ production” value (human PBMCs [4]) was “inhibits” and the “dose recovered in urine” value ([5]; in vivo) was at most 16%. For the same molecule, the “effect of food (high-fat meal) on absorption” value ([5]; in vivo) was “does not have a clinically relevant effect on the extent of absorption”, the fraction absorbed ([5]; in vivo) was “approximately 100%” and the “increase of AUC(0-∞) and Cmax with dose” value ([5]; in vivo) was “approximately dose-proportional”. The “time to steady state” value ([5]; in vivo) was at most 8 days, the “Permeability class according to the BCS criteria” value ([5]; not told, po) was “high-permeability compound” and the tolerability [6] was “generally well-tolerated”. For the same molecule, the “AUC exposure margin, NOAEL to clinical exposure of 30 mg QD” value (cynomolgus monkeys) was 7.8 fold, the “IFN-I induced damage in endothelial cells” value [7] was “almost completely prevented” and the “AUC exposure margin, NOAEL to clinical exposure of 30 mg QD” value (rats) was 54 fold. For the same molecule, the half-life (clinical) was 4 to 8 h, the bioavailability (clinical; absolute bioavailability) was about 75% and the bioavailability (clinical; bioavailability of tablets relative to solution) was about 96%. The “In vitro inhibition of P-gp” value (P-gp) was “inhibition”, the “dose resulting in 50% maximal response” value [8] was 15 mg QD and the “radiolabeled dose recovered as unchanged Brepocitinib in the urine” value (human, in vivo) was “Approximately 8%”. For the same molecule, the “radiolabeled dose recovered as Brepocitinib metabolites in the urine” value (human, in vivo, po) was “Approximately 80%”, the Permeability (not told) was “highly permeable” and the “cardiovascular safety pharmacology findings” value [9] was “effects on blood pressure, heartrate, and corrected QT interval (QTc) interval were observed”. The “in vitro fraction metabolized” value (CYP1A2) was 0.14, the “In vitro inhibition of BCRP” value [10] was “inhibition” and the “In vitro inhibition of MATE1” value [11] was “inhibition”. For the same molecule, the “In vitro inhibition of OCT2” value (OCT2) was “inhibition”, the “differentiation of Th1, Th17, and B cells” value [12] was “inhibits” and the “dissolution from immediate-release (IR) tablets” value [13] was over 85%. For the same molecule, the “Primary efficacy outcome in Phase 2 studies” value [14] was “clinically meaningful and statistically significant results”, the “In vitro inhibition of OCT1” value [15] was “inhibition” and the “cytokine-induced phosphorylation of STATs” value [16] was “inhibits”. For the same molecule, the “mean myosin surface area” value ([17]; 130 nM preincubation 1 hour) was 94.1 % of the vehicle control, the “mean myosin surface area” value ([17]; 1 μM preincubation 1 hour) was 100 % of the vehicle control and the “IFN-I induced damage in myotubes” value ([17]; Brepocitinib preincubation, 130 nM and 1 μM) was “almost completely prevented”. The “Solubility in 250 mL of the media” value [18] was “fully soluble”, the Solubility ([18]; across the physiological pH range) was “highly soluble” and the P-gp substrate status [19] was “substrate”. For the same molecule, the “IFN-1 gene signature induced by immune complexes” value (human PBMCs [20]) was “inhibits” and the “fraction of unbound drug” value [21] was 0.609.
